Results reported in ChEMBL document CHEMBL2057131, “Novel steroid inhibitors of glucose 6-phosphate dehydrogenase” (J Med Chem, 2012).
≈ marks a conversion by molar mass, not a printed value.

Key:
[1] = molecular target: T1, Glucose-6-phosphate 1-dehydrogenase (Homo sapiens, UniProt P11413); test: Inhibition of human recombinant N-terminal His tagged G6PD expressed in Escherichia coli JM109 (DE3) cells assessed as production of NADPH after 30 mins by Amplite fluorimetric assay
[2] = molecular target: T1, Glucose-6-phosphate 1-dehydrogenase; test: Inhibition of G6PD in HEK293T cells assessed as accumulation of 6-phosphogluconate after 5 hrs by LC-MS/MS analysis using 6-aminonicotinamide; assay type: cell-based, HEK-293T
[3] = molecular target: T1, Glucose-6-phosphate 1-dehydrogenase; test: Ratio of IC50 for G6PD in HEK293T cells to IC50 for human recombinant G6PD expressed in Escherichia coli JM109 (DE3) cells; conditions: HEK-293T
[4] = Aqueous solubility of the compound in phosphate buffer by turbidimetric method; assay type: physicochemical
[5] = Permeability of the compound from apical to basolateral side of human Caco2 cells; assay type: ADME, cell-based; conditions: Caco-2, read-out: permeability
[6] = Efflux ratio of permeability of the compound from basolateral to apical side over apical to basolateral side of human Caco2 cells; assay type: ADME, cell-based; conditions: Caco-2
[7] = Half life in human liver microsomes; assay type: ADME, Microsome
in vitro = conditions: human, liver microsomes

T1 sequence (P11413 whole entry): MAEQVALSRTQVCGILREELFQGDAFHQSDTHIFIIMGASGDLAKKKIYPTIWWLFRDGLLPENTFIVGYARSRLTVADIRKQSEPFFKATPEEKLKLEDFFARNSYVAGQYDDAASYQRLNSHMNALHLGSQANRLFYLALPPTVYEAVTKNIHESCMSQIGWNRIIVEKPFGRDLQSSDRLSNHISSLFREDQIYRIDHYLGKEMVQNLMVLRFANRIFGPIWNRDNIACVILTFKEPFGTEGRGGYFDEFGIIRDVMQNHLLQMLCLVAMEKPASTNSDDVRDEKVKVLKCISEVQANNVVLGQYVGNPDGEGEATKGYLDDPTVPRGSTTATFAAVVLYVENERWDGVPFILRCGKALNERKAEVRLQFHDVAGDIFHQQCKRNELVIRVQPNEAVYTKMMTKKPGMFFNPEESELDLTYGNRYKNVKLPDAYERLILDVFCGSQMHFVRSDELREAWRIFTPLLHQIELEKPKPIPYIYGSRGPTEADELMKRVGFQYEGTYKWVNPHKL

Structure (SMILES) | IC50 [1] | also measured
COC(=O)N[C@H]1CC[C@@]2(C)[C@@H](CC[C@@H]3[C@@H]2CC[C@]2(C)[C@@H](C(=O)CO)CC[C@@H]32)C1 | 41.6 µM | 
COC(=O)N[C@H]1CC[C@@]2(C)[C@@H](CC[C@@H]3[C@@H]2CC[C@]2(C)[C@@H](C(C)=O)CC[C@@H]32)C1 | > 200 µM | 
CCNC(=O)NC1CC[C@@]2(C)[C@@H](CC[C@@H]3[C@@H]2CC[C@]2(C)[C@@H](C(=O)CO)CC[C@@H]32)C1 (some centres not stated) | 34.9 µM | 
CC(=O)[C@H]1CC[C@H]2[C@@H]3CC[C@H]4C[C@@H](O)CC[C@]4(C)[C@H]3C(=O)C[C@]12C | 15.8 µM | 
C[C@]12CC[C@H](O)C[C@@H]1CC[C@@H]1[C@@H]2CC[C@@]2(C)[C@H]1CC[C@]2(O)C(=O)CO | 5.2 µM | 
C[C@]12CC[C@H](NC(N)=O)C[C@@H]1CC[C@@H]1[C@@H]2CC[C@]2(C)C(=O)CC[C@@H]12 | 5 µM | 
COC(=O)N[C@H]1CC[C@@]2(C)[C@@H](CC[C@@H]3[C@@H]2CC[C@]2(C)C(=O)CC[C@@H]32)C1 | 1.5 µM | IC50 [2]: 7.8 µM; Ratio IC50 [3]: 5.2; solubility kinetic [4]: > 100 µM
CCS(=O)(=O)N[C@H]1CC[C@@]2(C)[C@@H](CC[C@@H]3[C@@H]2CC[C@]2(C)C(=O)CC[C@@H]32)C1 | 70.5 µM | 
CC(=O)[C@H]1CC[C@H]2[C@@H]3CC[C@H]4C[C@@H](NC(=O)N(C)C)CC[C@]4(C)[C@H]3CC[C@]12C | > 200 µM | 
C/C(=N/O)[C@H]1CC[C@H]2[C@@H]3CC[C@H]4C[C@@H](O)CC[C@]4(C)[C@H]3CC[C@]12C | > 200 µM | 
CO[C@]1(C(C)=O)CC[C@H]2[C@@H]3CC[C@H]4C[C@@H](O)CC[C@]4(C)[C@H]3CC[C@@]21C | > 200 µM | 
C[C@]12CC[C@@H](O)C[C@@H]1CC[C@@H]1[C@@H]2CC[C@]2(C)C(=O)CC[C@@H]12 [ANDROSTERONE] | > 200 µM | 
C[C@]12CC[C@H](NS(N)(=O)=O)C[C@@H]1CC[C@@H]1[C@@H]2CC[C@]2(C)[C@@H](C(=O)CO)CC[C@@H]12 | 1.2 µM | IC50 [2]: 14.1 µM; Ratio IC50 [3]: 11.8; solubility kinetic [4]: > 100 µM; Papp A→B [5]: 13.1 ×10⁻⁶ cm/s; efflux ratio [6]: 0.49; half-life [7]: 48.9 min; microsomal CLint (in vitro): 28.3 µL/min/mg
C[C@]12CC[C@@H](NS(C)(=O)=O)C[C@@H]1CC[C@@H]1[C@@H]2CC[C@]2(C)C(=O)CC[C@@H]12 | > 200 µM | 
C[C@]12CC[C@H](O)C[C@@H]1CC[C@@H]1[C@@H]2CC[C@]2(C)C(=O)CC[C@@H]12 [EPIANDROSTERONE] | 9.4 µM | 
CC(=O)OCC(=O)[C@H]1CC[C@H]2[C@@H]3CC[C@H]4C[C@@H](O)CC[C@]4(C)[C@H]3CC[C@]12C | > 200 µM | 
CC(=O)[C@H]1CC[C@H]2[C@@H]3CC[C@H]4C[C@@H](NS(N)(=O)=O)CC[C@]4(C)[C@H]3CC[C@]12C | 2 µM | IC50 [2]: 9.2 µM; Ratio IC50 [3]: 4.6; solubility kinetic [4]: 10 µM (≈ 3.97 µg/mL); Papp A→B [5]: 2.1 ×10⁻⁶ cm/s; efflux ratio [6]: 0.53
C[C@]12CC[C@H](O)C[C@@H]1CC[C@@H]1[C@@H]2CC[C@@]2(C)[C@H]1CC[C@@]21CCO1 | > 200 µM | 
CC(=O)[C@H]1CC[C@H]2[C@@H]3CC=C4C[C@@H](O)CC[C@]4(C)[C@H]3CC[C@]12C [PREGNENOLONE] | 81.4 µM | 

Structure (SMILES) | IC50 [1] | also measured
CC(=O)[C@H]1CC[C@H]2[C@@H]3CC[C@H]4C[C@@H](O)CC[C@]4(C)[C@H]3CC[C@]12C [SEPRANOLONE] | 4.3 µM | 
C[C@]12CC[C@H](NS(N)(=O)=O)C[C@@H]1CC[C@@H]1[C@@H]2CC[C@]2(C)C(=O)CC[C@@H]12 | 1.2 µM | IC50 [2]: 17.4 µM; Ratio IC50 [3]: 14.5; solubility kinetic [4]: 30 µM (≈ 11.1 µg/mL); Papp A→B [5]: 31.8 ×10⁻⁶ cm/s; efflux ratio [6]: 0.66
C[C@]12CC[C@H](O)CC1=CC[C@@H]1[C@@H]2CC[C@]2(C)C(=O)[C@H](O)C[C@@H]12 | 15.8 µM | 
C[C@]12CC[C@H](O)C[C@@H]1CC[C@H]1[C@@H]3CC[C@H](C(=O)CO)[C@@]3(C)CC(=O)[C@@H]12 | 6.3 µM | 
C[C@]12CC[C@H](O)C[C@@H]1CC[C@@H]1[C@@H]2CC[C@]2(C)/C(=N/O)CC[C@@H]12 | > 200 µM | 
C[C@]12CC[C@H](O)CC1=CC[C@@H]1[C@@H]2CC[C@]2(C)C(=O)CC[C@@H]12 [PRASTERONE] | 11.3 µM | IC50 [2]: 24.9 µM; Ratio IC50 [3]: 2.2; solubility kinetic [4]: > 100 µM
CCNC(=O)N[C@@H]1CC[C@@]2(C)[C@@H](CC[C@@H]3[C@@H]2CC[C@]2(C)C(=O)CC[C@@H]32)C1 | > 200 µM | 
C[C@]12CC[C@H](O)C[C@@H]1CC[C@@H]1[C@@H]2CC[C@@]2(C)[C@H]1CC[C@@]21CO1 | > 200 µM | 
CC(=O)[C@@]1(O)CC[C@H]2[C@@H]3CC[C@H]4C[C@@H](O)CC[C@]4(C)[C@H]3C(=O)C[C@@]21C | 47 µM | 
C[C@]12CC[C@H](O)C[C@@H]1CC[C@@H]1[C@@H]2CC[C@]2(C)[C@@H](C(=O)CCl)CC[C@@H]12 | 9.3 µM | 
CC(=O)[C@H]1CC[C@H]2[C@@H]3CC[C@H]4C[C@@H](N)CC[C@]4(C)[C@H]3CC[C@]12C | > 200 µM | 
C[C@]12CC[C@@H](O)C[C@@H]1CC[C@@H]1[C@@H]2CC[C@]2(C)[C@@H](C(=O)CO)CC[C@@H]12 | 31.6 µM | 
C[C@]12CC[C@@H](N)C[C@@H]1CC[C@@H]1[C@@H]2CC[C@]2(C)C(=O)CC[C@@H]12 | > 200 µM | 
C[C@]12CC[C@H](O)C[C@@H]1CC[C@@H]1[C@@H]2CC[C@]2(C)[C@@H](C(=O)CBr)CC[C@@H]12 | 2.5 µM | 
C[C@]12CC[C@H](O)C[C@@H]1CC[C@@H]1[C@@H]2CC[C@]2(C)C(=O)[C@H](Br)C[C@@H]12 [16.ALPHA.-BROMOEPIANDROSTERONE] | 20.8 µM | 
C[C@]12CC[C@H](N)C[C@@H]1CC[C@@H]1[C@@H]2CC[C@]2(C)C(=O)CC[C@@H]12 | > 200 µM | 
CC(=O)[C@H]1CC[C@H]2[C@@H]3CC[C@H]4C[C@@H](NS(=O)(=O)N(C)C)CC[C@]4(C)[C@H]3CC[C@]12C | 37.8 µM | 
CCCCNC(=O)N[C@H]1CC[C@@]2(C)[C@@H](CC[C@@H]3[C@@H]2CC[C@]2(C)C(=O)CC[C@@H]32)C1 | 1.7 µM | 
C[C@]12CC[C@H](O)CC1=CC[C@@H]1[C@@H]2CC[C@@]2(C)[C@H]1CC[C@@]21CCO1 | > 200 µM | 

Structure (SMILES) | IC50 [1] | also measured
CC(=O)N[C@H]1CC[C@@]2(C)[C@@H](CC[C@@H]3[C@@H]2CC[C@]2(C)C(=O)CC[C@@H]32)C1 | 128 µM | 
CC(=O)[C@H]1CC[C@H]2[C@@H]3CC[C@H]4C[C@@H](NC(N)=O)CC[C@]4(C)[C@H]3CC[C@]12C | > 100 µM | 
C[C@]12CC[C@H](NS(=O)(=O)c3ccccc3)C[C@@H]1CC[C@@H]1[C@@H]2CC[C@]2(C)C(=O)CC[C@@H]12 | 9.9 µM | 
C[C@]12CC[C@@H](NS(N)(=O)=O)C[C@@H]1CC[C@@H]1[C@@H]2CC[C@]2(C)C(=O)CC[C@@H]12 | > 200 µM | 
C[C@]12CCCC[C@@H]1CC[C@@H]1[C@@H]2CC[C@]2(C)C(=O)CC[C@@H]12 | > 200 µM | 
CC(=O)[C@H]1CC[C@H]2[C@@H]3CC[C@H]4C[C@@H](NS(C)(=O)=O)CC[C@]4(C)[C@H]3CC[C@]12C | 3.4 µM | IC50 [2]: 4.8 µM; Ratio IC50 [3]: 1.4; solubility kinetic [4]: 3 µM (≈ 1.19 µg/mL); half-life [7]: 135 min; microsomal CLint (in vitro): 10.3 µL/min/mg
CC(=O)[C@@]12O[C@@H]1C[C@H]1[C@@H]3CC[C@H]4C[C@@H](O)CC[C@]4(C)[C@H]3CC[C@@]12C | > 200 µM | 
CC(=O)[C@H]1CC[C@H]2[C@@H]3CC[C@H]4C[C@H](O)CC[C@]4(C)[C@H]3CC[C@]12C [BREXANOLONE] | 66 µM | 
C[C@]12CC[C@H](NS(C)(=O)=O)C[C@@H]1CC[C@@H]1[C@@H]2CC[C@]2(C)C(=O)CC[C@@H]12 | 6.6 µM | 
CCNC(=O)N[C@H]1CC[C@@]2(C)[C@@H](CC[C@@H]3[C@@H]2CC[C@]2(C)C(=O)CC[C@@H]32)C1 | 1 µM | IC50 [2]: 9.5 µM; Ratio IC50 [3]: 9.5; solubility kinetic [4]: 30 µM (≈ 10.8 µg/mL); Papp A→B [5]: 31.6 ×10⁻⁶ cm/s; efflux ratio [6]: 0.54; half-life [7]: 24.4 min; microsomal CLint (in vitro): 56.8 µL/min/mg
C[C@]12CC[C@H](O)CC1=CC[C@@H]1[C@@H]2CC[C@@]2(C)[C@H]1CC[C@@]21CO1 | > 200 µM | 
CC(=O)[C@H]1CC[C@H]2[C@@H]3CC[C@H]4C[C@@H](NS(=O)(=O)c5ccccc5)CC[C@]4(C)[C@H]3CC[C@]12C | 20.3 µM | 
CC(=O)C[C@H]1CC[C@H]2[C@@H]3CC[C@H]4C[C@@H](O)CC[C@]4(C)[C@H]3CC[C@]12C | > 200 µM | 
C[C@]12CC[C@H](NS(C)(=O)=O)C[C@@H]1CC[C@@H]1[C@@H]2CC[C@]2(C)[C@@H](C(=O)CO)CC[C@@H]12 | 3.8 µM | IC50 [2]: 35.2 µM; Ratio IC50 [3]: 9.2; solubility kinetic [4]: 10 µM (≈ 4.12 µg/mL); Papp A→B [5]: 17.4 ×10⁻⁶ cm/s; efflux ratio [6]: 0.3
CCS(=O)(=O)N[C@H]1CC[C@@]2(C)[C@@H](CC[C@@H]3[C@@H]2CC[C@]2(C)[C@@H](C(C)=O)CC[C@@H]32)C1 | 11 µM | 
CNC(=O)N[C@H]1CC[C@@]2(C)[C@@H](CC[C@@H]3[C@@H]2CC[C@]2(C)C(=O)CC[C@@H]32)C1 | 12.2 µM | 
C[C@]12CC[C@H]3[C@@H](CC=C4C[C@@H](O)CC[C@@]43C)[C@@H]1CC[C@@H]2C(=O)CO | 5.3 µM | 
CN(C)C(=O)N[C@H]1CC[C@@]2(C)[C@@H](CC[C@@H]3[C@@H]2CC[C@]2(C)C(=O)CC[C@@H]32)C1 | > 200 µM | 
CC(=O)N[C@H]1CC[C@@]2(C)[C@@H](CC[C@@H]3[C@@H]2CC[C@]2(C)[C@@H](C(C)=O)CC[C@@H]32)C1 | > 200 µM | 
